Measurements reported in publication PMC3982590 (Biochemistry, 2013).

Biological target: T1, TtPFK (Thermus thermophilus, UniProt P21777, L313W)
T1 sequence (P21777 1-322 L313W): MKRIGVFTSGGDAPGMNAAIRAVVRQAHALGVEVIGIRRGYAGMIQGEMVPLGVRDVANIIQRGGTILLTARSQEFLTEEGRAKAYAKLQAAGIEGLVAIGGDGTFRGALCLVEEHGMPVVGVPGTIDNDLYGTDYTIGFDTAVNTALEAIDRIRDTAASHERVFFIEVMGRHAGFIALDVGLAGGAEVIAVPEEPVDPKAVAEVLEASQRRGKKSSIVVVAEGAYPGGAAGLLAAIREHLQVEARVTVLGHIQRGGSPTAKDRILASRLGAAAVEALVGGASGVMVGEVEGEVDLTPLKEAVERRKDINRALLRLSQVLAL
Test: intrinsic tryptophan fluorescence titration
Type: binding

Question: Which Kd does the source give for C=C(OP(=O)(O)O)C(=O)O [PEP] here?
Answer: The Kd was 660 ± 60 nM.
